Patent publication US9726664B2, “Animal model for diabetic complications” (NEDERLANDSE ORGANISATIE VOOR …, priority 2010, dated 2017)

Key:
LDLr−/− mice [1] = assay: Intervention study in LDLr−/− mice on 45 En % Lard diet: body weight and adipose depots; format: in vivo; details: for gonadal fat mass: drug mixed into diet from week 9 until week 16, FIG. 6
Method: Based on the findings of the above experiment, an intervention study was designed. The middle dose (45 En % lard diet) was defined to be the optimal diet to use for interventions with drugs since ALAT was not increased Thereby putative adverse liver effects of drugs can still be detected. Several anti-diabetic interventions (drugs and life-style) were tested according to the experimental set-up described above.
LDLr−/− mice (12 weeks old) were fed 45 En % Lard diet for 9 weeks to establish a prediabetic state (as described above and including visceral adiposity, hypertriglyceridemia, elevated glucose and insulin, chronic inflammation). After these 9 weeks, the interventions were started and continued until week 16. Drugs were mixed into lard diet and administered orally via the feed. One group of mice was sacrifice at the start of the intervention at week 9 for reference. Another control group was fed chow throughout the 16 weeks (serving as internal reference). The groups were as follows:
(§1) Body weight and food intake were measured regularly and blood samples were taken at t=0, t=6, t=9, t=12, t=14 and t=15 weeks. Spot urine was collected at t=0, t=8 and t=15 weeks. At the end of the study, the mice were sacrificed and the various organs were isolated and weighed and stored at −80 C and/or in formalin. Livers were processed for microarray analysis. More specifically, the same lobe of each liver was used for RNA extraction to prepare mRNA of microarray quality according to an established protocol (Kleemann et al., Genome Biology, 2007).

LDLr−/− mice [2] = assay: Intervention study in LDLr−/− mice on 45 En % Lard diet: microalbuminuria (albumine/creatinine ratio in spot urine); format: in vivo; details: compared to high fat treated control animals not treated with drugs, ratio as μg albumine per mg creatinine, drug mixed into 45 En % Lard diet from week 9 until week 16, FIG. 7
Method: Several anti-diabetic interventions (drugs and life-style) were tested according to the experimental set-up described above.
After these 9 weeks, the interventions were started and continued until week 16. Drugs were mixed into lard diet and administered orally via the feed. One group of mice was sacrifice at the start of the intervention at week 9 for reference. Another control group was fed chow throughout the 16 weeks (serving as internal reference). The groups were as follows:
as §1
Microalbuminuria is a hallmark of diabetic nephropathy and was determined by measuring the concentration of albumine and creatinine in spot urine collected at various time points during the experiment. Subsequently the albumine/creatinine ratio was calculated, viz. the amount of albumine expressed in μg per mg creatinine (FIG. 7).

SMILES | gonadal fat mass (LDLr−/− mice [1]) | body weight (LDLr−/− mice [1]; drug mixed into diet, orally via feed, from week 9 until week 16, FIG. 5) | albumine/creatinine ratio (microalbuminuria) (LDLr−/− mice [2])
O=S(=O)(c1ccccc1)N(CC(F)(F)F)c1ccc(C(O)(C(F)(F)F)C(F)(F)F)cc1 [LXR agonist] | lowered | reduced | –
CC(C)c1c(C(=O)Nc2ccccc2)c(-c2ccccc2)c(-c2ccc(F)cc2)n1CC[C@@H](O)C[C@@H](O)CC(=O)O [atorvastatin] | – | – | significantly improved
COc1ccc(Cl)cc1C(=O)NCCc1ccc(S(=O)(=O)NC(=O)NC2CCCCC2)cc1 [glibenclamide, Glibenclamide] | lowered | – | significantly improved
CN(C)C(=N)N=C(N)N [metformin] | – | – | significantly improved
O=C(O)c1ccccc1O [salicylate] | lowered | – | significantly improved
